# pIC50: −log10 of the molar value.
# Tests used:
# [1] = tested on: Pten KO mice; test: 3-chamber test in Pten KO mice; type: in vivo
# Experimental: As Pten KO mice, Ptenf/f_cre/cre KO mice or Ptenf/f_cre/++ Het mice (KD) were obtained by mating Pten floxed/floxed mice and CAMKII-cre mice. DMSO or athyriol was intraperitoneally injected at 5 or 10 mg/kg for 2 weeks from the age of mice of 6 weeks, and a behavioral test was performed in 7 days after administration. Pten floxed/floxed mice were used as littermates of the same age as a normal control group.
# 3-chamber test is a test to confirm sociability, social cognition, and social sexual preference, and it was tested by composing sessions 1 and 2. The experimental site was consisted of three chambers made of transparent acrylic walls with a small door and each chamber was length 50 cm×width 100 cm×height 50 cm. Through a cylindrical cage, the sense of smell and minimal contact of the test mice to the unfamiliar mouse were allowed. Prior to the test, the test mice were placed in an intermediate chamber and adapted for 5 minutes with both doors closed. The test was performed by dividing into sessions I and II. In the 3-chamber sociability measurement-1 session, an unfamiliar mouse met first was placed in a transparent box located at one end of the three rooms, and an empty transparent box of the same size was placed in the room located at the other side, and the target mouse was placed in the middle room, and then the time searching toward the counterpart within the social interaction zone was measured.
# In the 3-chamber sociability measurement-2 session, an unfamiliar met first was placed in a transparent box located at one end of the three rooms, and the mouse met in the session 1 was placed in the same transparent box in the room located at the other side. […] Therefore, it could be confirmed that the sociability disorder occurring in the Pten KO mice was improved to the normal group level by athyriol administration.
# [2] = target: T1, mTORC1 (Homo sapiens, UniProt P42345); test: In vitro mTORC1 kinase assay (GST-S6K Thr389 phosphorylation, immunoblot); type: biochemical
# T1 construct: mTORC1 was isolated by co-immunoprecipitation using Flag antibody; made in house; host or cells: HEK 293T transfected with Flag-Raptor
# Experimental: In order to investigate the effect on mTORC1 activity of norathyriol, in vitro mTORC1 kinase assay was performed. After introducing Flag-Raptor into a human cell line 293T, mTORC1 was isolated by co-immunoprecipitation using Flag antibody. In addition, the activity of the isolated mTORC1 complex was evaluated by measuring phosphorylation of GST-S6K Thr389, which is a selective substrate of mTORC1, by immunoblot analysis. In the control group in which Flag-Raptor was not introduced, GST-S6K Thr389 phosphorylation was almost not measured. […] Therefore, it was judged that GST-S6K Thr389 phosphorylation measured in the in vitro mTORC1 kinase assay was generated by mTORC1. In order to evaluate the inhibitory effect of norathyriol on mTORC1 activity, norathyriol was pretreated for 15 minutes, and then in vitro mTORC1 kinase assay was carried out.
# More specifically, the HEK 293T cells were cultured in a DMEM culture medium in which 10% heat inactivated FBS+1× Glutamax was added. 8×10^5 HEK 293T cells were seeded in a 100 mm culture dish, and then they were cultured for 1 day. After mixing 42 μl Lipofectamine, 21 μl plus reagent, and 21 μg Flag-Raptor plasmid DNA to 1 ml OPTI-MEM, it was shaken at a room temperature for 25 minutes to prepare a transfection DNA mixture. The transfection DNA mixture was slowly treated on the cells drop by drop, and after culturing for 5 hours, the culture medium was replaced with a new culture medium. […] The protein concentration of the cell lysate was determined with BCA protein assay kit (Thermo Fisher Scientific). […] Thr389 phosphorylation of GST-S6K1, which is a substrate of mTORC1, was measured by performing immunoblot analysis using phospho Thr389 p70 S6 kinase antibody (#9205S, Cell Signaling) and GST antibody (#A190-122A, Bethyl Laboratories). […]
"GST-S6K Thr389 phosphorylation ([2]; 20 μM, 40 μM and 80 μM, FIG. 6c)",pIC50 ([2]; in vitro mTORC1 kinase assay),SMILES,"increase of time of searching the unfamiliar mouse over normal control group, session 2 ([1]; 10 mg/kg, session 2)","time searching the unfamiliar mouse, session 1 ([1]; 3-chamber sociability measurement-1 session, FIG. 4)","time of searching the unfamiliar mouse, session 2 ([1]; 5 or 10 mg/kg, 3-chamber sociability measurement-2 session)"
,,"COc1cc(O)c2c(=O)c3cc(O)c(O)cc3oc2c1 [athyriol, 1,6,7-Trihydroxy-3-methoxy-9H-xanthen-9-on]",14%,recovered to the normal control group level in a concentration-dependent manner,increased in a dose-dependent manner
not reduced at a significant level,< 4.10,"O=c1c2cc(O)c(O)cc2oc2cc(O)cc(O)c12 [norathyriol, 1,3,6,7-tetrahydroxy-9H-xanthen-9-one]",,,

# From patent US20240366555A1, “SELECTIVE MTORC2 INHIBITOR AND USES THEREOF” (ALIAD BIOPHARMA, priority 2021, published 2024)
